What all share (assay): NCI anticancer screen, dose series, 48 h
For assay [1], the system named is M14 melanoma.
Assay [2] has as its system MDA-MB-435.
For assay [3], the system named is U251 CNS.
Assay [4] deals with BT-549 breast.
In assay [5] the test system is OVCAR-3 ovarian.
The test system of assay [6] is HCT-15 colon.

Molecules are shown by their SMILES.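 Protocol summary: plate cells (96-well), add compound at 5 concentrations, incubate 48 h, interpolate endpoints linearly. TGI is the concentration that stops growth completely.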

With `CC(C)=C[C@@H]1O[C@H](O)[C@@H]([C@H]2CC[C@@]3(C)[C@@H]4CC[C@H]5C(C)(C)C(=O)CC[C@@]56C[C@@]46CC[C@]23C)[C@@H]1O`, the TGI in assay [1] came out at 57.3 µM; in assay [2], 41.7 µM; in assay [3], 34.8 µM; in assay [4], 39.8 µM; in assay [5], 27.3 µM; in assay [6] it was 36.1 µM.
As for `O=C(NC1(C(=O)O)CCCC1)c1ccccc1`, the TGI in assay [1], in assay [2], in assay [3], in assay [4], in assay [5] and in assay [6] was above 100 µM each time.
For `CC(CC[C@@]1(O)OC2C[C@H]3[C@@H]4CC[C@H]5CC(OC6OC(CO)C(OC7OC(CO)C(O)C(OC8OCC(O)C(O)C8O)C7OC7OC(CO)C(O)C(O)C7O)C(O)C6O)[C@H](O)CC5(C)[C@H]4CCC3(C)C2[C@@H]1C)COC1OC(CO)C(O)C(O)C1O` (stereo not given in full), the TGI in assay [1] was above 50 µM; in assay [2], above 50 µM; in assay [3], above 50 µM; in assay [4] it was 6.64 µM; in assay [5] it was 23.1 µM; in assay [6], above 50 µM.
Turning to `Cc1ccc(/S(Cc2ccccc2)=N\S(=O)(=O)c2ccc(C)cc2)cc1` (stereo not given), the TGI in assay [1], in assay [2], in assay [3], in assay [4], in assay [5] and in assay [6] was above 100 µM in each case.
On to `C[n+]1ccccc1/C1=c2\cc/c([nH]2)=C(\c2cccc[n+]2C)C2=N/C(=C(/c3cccc[n+]3C)C3C=CC(N3)/C(c3cccc[n+]3C)=C3/C=CC1=N3)C=C2`, for which the TGI in assay [1], in assay [2], in assay [3], in assay [4], in assay [5] and in assay [6] was above 100 µM each time.
For `O=C1NC(=Nc2ccccc2Cl)N/C1=C\c1ccc(Cl)cc1Cl`, the TGI in assay [1], in assay [2], in assay [3], in assay [4], in assay [5] and in assay [6] was above 100 µM throughout.
In the case of `Cc1ccc(SCC(OCn2cnc3c(Cl)nc(N)nc32)[C@H](C)F)cc1` (stereo not given in full), the TGI in assay [1], in assay [2], in assay [3], in assay [4], in assay [5] and in assay [6] was above 100 µM throughout.
Turning to `CCC(=O)Nc1ccc(NCC(=O)Nc2ccc(OC)cc2)cc1`, the TGI is above 100 µM in assay [1]; above 100 µM in assay [2]; 51.6 µM in assay [4]; 78.6 µM in assay [5]; above 100 µM in assay [6].
`CC12CCC(CC1(Cl)Cl)C2` (stereo not given): the TGI in assay [1], in assay [2], in assay [3], in assay [4], in assay [5] and in assay [6] was above 100 µM throughout.
On to `CC(=O)NC1(C)C(C)C2CC1C(C)C2(C)C` (stereo not given), for which the TGI in assay [1], in assay [2], in assay [3], in assay [4] and in assay [5] was above 100 µM each time.
Take `Cc1cc2nnc(C(N)=O)c(N)c2cc1C`: the TGI in assay [1], in assay [2], in assay [3], in assay [4], in assay [5] and in assay [6] was above 100 µM in each case.
Turning to `Cc1nc(Nc2ccc(Cl)c(Cl)c2)sc1C(=O)/C=C/c1ccc2c(c1)OCO2`, the TGI in assay [2] was 48.4 µM; in assay [3] it was 49 µM; in assay [4], 46.1 µM; in assay [5] it was 30 µM.
For the molecule `O=c1[nH]nc(-c2ccc(F)cc2)cc1-c1ccccc1`, the TGI in assay [1], in assay [2], in assay [3], in assay [5] and in assay [6] was above 100 µM throughout.
For the molecule `O=C(Nc1ccc2cc3ccccc3cc2c1)c1cc2c(cc1Cl)Sc1nccn1S2(=O)=O`, the TGI in assay [1], in assay [2], in assay [3], in assay [4], in assay [5] and in assay [6] was above 100 µM each time.
Take `COC(=O)CNC(=O)CCC(C)[C@H]1CCC2C3C(C[C@H](OC(C)=O)[C@@]21C)[C@@]1(C)CCC2(C[C@H]1C[C@H]3OC(C)=O)OOC1(CCCCC1)OO2` (stereo not given in full): the TGI in assay [1] is 8.28 µM; in assay [2], 4.06 µM; in assay [3] it was 3.41 µM; in assay [4], 3.9 µM; in assay [5] it was 3.77 µM; in assay [6], 8.65 µM.
Take `Cc1cc(C)nc(NS(=O)(=O)c2ccc(NC(=O)c3cc([N+](=O)[O-])cc([N+](=O)[O-])c3)cc2)n1`: the TGI in assay [1] is above 100 µM; in assay [2] it was above 100 µM; in assay [3], above 100 µM; in assay [4], above 100 µM; in assay [5], 98.4 µM; in assay [6], above 100 µM.
For the molecule `CC(=O)O[C@H]1C(=O)[C@@]2(C)[C@H]([C@H](OC(=O)c3ccccc3)[C@]3(O)C[C@H](OC(=O)[C@H](O)[C@@H](NC(=O)c4ccc(N(C)C)cc4)c4ccccc4)C(C)=C1C3(C)C)[C@]1(OC(C)=O)CO[C@@H]1C[C@@H]2O`, the TGI in assay [1] was above 50 µM; in assay [3] it was above 50 µM; in assay [4], above 50 µM; in assay [5] it was 0.0063 µM; in assay [6] it was above 50 µM.
As for `C#CC(O)/C=C/C(O)CCCC(O)CC#CC(O)C#CCCCCC(O)/C=C/CCCC(O)/C=C/CCCCCCCCCCCCCC(O)C(O)C#CC(=O)O` (stereo not given), the TGI in assay [1], in assay [2], in assay [3] and in assay [6] was above 25 µM throughout.
With `COc1cc(S(=O)(=O)Nc2ccc(-c3csc(N4C(=O)C(Cl)C4c4cccs4)n3)cc2)ccc1Cl` (stereo not given), the TGI in assay [1], in assay [2], in assay [4], in assay [5] and in assay [6] was above 100 µM in each case.
Regarding `CCN(CC)CCN1C(=O)C(=O)N(c2cccc3ccccc23)C1=O`, the TGI in assay [1], in assay [2], in assay [3], in assay [5] and in assay [6] was above 10 µM each time.
